Experiments:
[1] = test system: reversed passive Arthus reaction; assay: Reversed passive Arthus reaction (RPAR) inhibition, leakage area of Evans Blue; format: in vivo, rats; details: for RPAR inhibitory action: oral administration
Protocol: Activity of RPAR inhibition of the compounds of the present invention was measured in the following manner. Anti-BSA serum was obtained from rabbits that were previously administered bovine serum albumin ("BSA"). The anti-BSA serum was applied to four parts of the skin of the abdomens of rats previously treated with BSA and Evans Blue. The anti-BSA serum and the BSA and Evans Blue were administered to the rats subcutaneously. […] The local inflammation was determined by examining each of the four inflamed parts and measuring for each part the area from which there was leakage of Evans Blue. The data from the test animals were compared to the control animals, and a reduction in the leakage area of 20% or more was defined as a positive effect. The RPAR inhibition activity is reported as the number of positive effects per animal, divided by 4. Thus, two positive effects would be an RPAR of 2/4.

carrageenin edema = carrageenin edema inhibiting activity; format: in vivo; details: intraperitoneal injection, 50 mg/kg
From the text: The RPAR inhibition activity of the compounds (I) of the present invention is not related to its anti-inflammatory activity.

[2] = Table I, 200 mg/kg body weight orally, number of positive effects (leakage area reduced 20% or more) out of 4 parts
[3] = Table 2, 500 mg/kg p.o., number of positive effects out of 4 parts
[4] = Table 2, 200 mg/kg p.o., number of positive effects out of 4 parts

O=C(Nc1nc(-c2ccc(Cl)cc2)nc(N2CCCC2)n1)c1cccnc1 [Compound 1]
RPAR Inhibition [1, 2]: 2/4

O=C(Nc1nc(-c2ccc(Cl)cc2)nc(N2CCOCC2)n1)c1cccnc1 [Compound 2]
RPAR Inhibition [1, 2]: 2/4

O=C(Nc1nc(-c2ccccc2Cl)nc(N2CCCCC2)n1)c1cccnc1 [Compound 3]
RPAR Inhibition [1, 2]: 2/4

O=C(Nc1nc(-c2ccccc2Cl)nc(N2CCOCC2)n1)c1cccnc1 [Compound 4]
RPAR Inhibition [1, 2]: 2/4

O=C(Nc1nc(-c2ccccc2Cl)nc(N2CCCC2)n1)c1cccnc1 [Compound 5]
RPAR Inhibition [1, 2]: 2/4

CCCCNc1nc(NC(=O)c2cccnc2)nc(-c2ccc(Cl)c(Cl)c2)n1 [Compound 6]
RPAR Inhibition [1, 2]: 2/4

CCN(CC)c1nc(NC(=O)c2cccnc2)nc(-c2ccc(Cl)c(Cl)c2)n1 [Compound 7]
RPAR Inhibition [1, 2]: 3/4

O=C(Nc1nc(-c2cc(Cl)ccc2Cl)nc(N2CCCCC2)n1)c1cccnc1 [Compound 8]
RPAR Inhibition [1, 2]: 3/4

O=C(Nc1nc(-c2cc(Cl)ccc2Cl)nc(N2CCOCC2)n1)c1cccnc1 [Compound 9]
RPAR inhibition activity (in words) [1]: strongly inhibits RPAR | RPAR Inhibition [1, 2]: 4/4 | carrageenin edema inhibiting activity (carrageenin edema): 21%

CN(C)c1nc(NC(=O)c2cccnc2)nc(-c2ccc(F)cc2)n1 [Compound 10]
RPAR Inhibition [1, 2]: 3/4

Nc1nc(N)nc(-c2cc(Cl)ccc2Cl)n1 [Compound 11]
RPAR inhibition activity (in words) [1]: do not exhibit RPAR inhibition activity at all | RPAR Inhibition [1, 3]: 0/4

Nc1nc(N)nc(-c2ccc(Cl)cc2)n1 [Compound 12]
RPAR inhibition activity (in words) [1]: do not exhibit RPAR inhibition activity at all | RPAR Inhibition [1, 3]: 0/4

Nc1nc(NC(=O)c2cccnc2)nc(-c2ccccc2)n1 [Compound 13]
RPAR inhibition activity (in words) [1]: little or no RPAR inhibition activity | RPAR Inhibition [1, 4]: 0/4 | RPAR Inhibition [1, 3]: 2/4

Nc1nc(NC(=O)c2cccnc2)nc(-c2c(Cl)cccc2Cl)n1 [Compound 14]
RPAR Inhibition [1, 4]: 0/4

Nc1nc(NC(=O)c2cccnc2)nc(-c2ccc(Cl)cc2)n1 [Compound 15]
RPAR inhibition activity (in words) [1]: no RPAR inhibition activity | RPAR Inhibition [1, 4]: 0/4 | carrageenin edema inhibiting activity (carrageenin edema): 56.8%

Nc1nc(NC(=O)c2cccnc2)nc(-c2cccc(Cl)c2)n1 [Compound 16]
RPAR Inhibition [1, 4]: 0/4

Nc1nc(NC(=O)c2cccnc2)nc(-c2ccccc2I)n1 [Compound 17]
RPAR Inhibition [1, 4]: 1/4

CC(=O)Oc1ccccc1C(=O)O [aspirin]
RPAR inhibitory action ([1]; 200 mg/kg): no RPAR inhibitory action

COc1ccc2c(c1)c(CC(=O)O)c(C)n2C(=O)c1ccc(Cl)cc1 [indomethacin]
RPAR inhibitory action ([1]; 10 mg/kg): no RPAR inhibitory action

CCCCC1C(=O)N(c2ccccc2)N(c2ccccc2)C1=O [phenylbutazone]
RPAR inhibitory action ([1]; 100 mg/kg): no RPAR inhibitory action

— patent US4415570A, “Nicotinic acid derivatives” (Nippon Shinyaku Co. Ltd., priority 1981, dated 1983)
